Values joined by “and” are separate entries in the source; they are usually repeats but may differ in a detail not shown here. Equal values may be shown once.

This is an account of results in patent US10363230B2, “6-shogaol derivatives and activities thereof” (North Carolina Agricultural and Technical State University, priority 2017, dated 2019).

Test system in one series: not listed separately
Nature of the series: Biotransformation of xenobiotics in zebrafish embryos (LC/MS). Format: in vivo. Conditions: 5 μM in incubation medium, 8 hpf to 24 hpf. How it is done:
Fifty zebrafish embryos at the 8 hour-post-fertilization (hpf) stage were incubated at 28.5° C. in 0.3× Danieau's solution (19.3 mM NaCl, 0.23 mM KCl, 0.13 mM MgSO4, 0.2 mM Ca(NO3)2, 1.7 mM HEPES, pH 7.0) with or without 5 μM 18 and 25-27, respectively. At 24 hpf, embryos were dechorionated manually and the chorions were carefully removed one by one from the culture medium. The zebrafish embryos were harvested and kept at −80° C. till analyzed by LC/MS.
200 μL Sodium acetate buffer solution (pH 5.0) was added to 50 zebrafish embryos. Samples were homogenized for 90 s by an Omni Bead Ruptor Homogenizer (Kennesaw, Ga., United States of America). 10 μL 10% ascorbic acid and 300 μL sodium acetate buffer were added to the homogenates. The mixture was incubated in the presence of β-glucuronidase (250 U) and sulfatase (3 U) at 37° C. for 45 min, and then 600 μL MeOH with 1% acetic acid was added. The resulting mixture was vortexed for 30 s and then centrifuged at 17000 g for 10 min. The supernatant was removed and evaporated under a gentle stream of nitrogen. The residue was reconstituted in 150 μL 90% MeOH with 0.2% acetic acid (AA), and 10 μL was analyzed directly by LC/MS.
(§1) LC/MS analysis was carried out with a Thermo-Finnigan Spectra System, which consisted of an Accela high speed MS pump, an Accela refrigerated autosampler, and an LCQ Fleet ion trap mass detector (Thermo Electron, San Jose, Calif., United States of America) incorporated with an electrospray ionization (ESI) interface. A Gemini-NX C18 column (150 mm×4.6 mm i.d., 5 μm; Phenomenex, Torrance, Calif., United States of America) was used for separation at a flow rate of 0.3 mL/min. The column was eluted with 100% A (5% aqueous methanol with 0.2% formic acid) for 1 min, followed by linear increases in B (95% aqueous methanol with 0.2% formic acid) to 55% from 1 to 4 min, to 85% from 4 to 25 min, then to 100% B from 25 to 30 min, and then with 100% B from 30 to 35 min. The column was then re-equilibrated with 100% A for 5 min. The LC eluent was introduced into the ESI interface. The positive ion polarity mode was set for the ESI source with the voltage on the ESI interface maintained at approximately 4.6 kV. Nitrogen gas was used as the sheath gas and auxiliary gas. Optimized source parameters, including capillary temperature (260° C.), sheath gas flow rate (31 arbitrary units), auxiliary gas flow rate (16 units), tube lens (34 V), and capillary voltage 9 V, were tuned using authentic samples. The collision-induced dissociation (CID) was conducted with an isolation width 2 Da and normalized collision energy of 35 for MS^2. The mass range was measured from 100 to 800 m/z. Data acquisition was performed with Xcalibur version 2.0 (Thermo Electron, San Jose, Calif., United States of America).
As for `CCCCC/C=C/C(=O)/C=C/c1ccc(O)c(OC)c1` [Compound 18], the “Cysteine conjugates (metabolites) detected in zebrafish embryos” value (“Cysteine conjugates … in zebrafish embryos” for short) is on record as “conjugate 35 was predominantly present”.

In the case of `CCCCCCCC(=O)CCc1ccc(O)c(O)c1` [Compound 25], the “Cysteine conjugates … in zebrafish embryos” value is “conjugates 37 and 37b were exclusively identified”.

Regarding `CCCCC/C=C/C(=O)/C=C/c1ccc(O)c(O)c1` [Compound 26], the “Cysteine conjugates … in zebrafish embryos” value was “Three conjugates 37, 37b, and 38”.

In another series the test system is Nrf2. The experiment in a line: Nrf2 reporter activity by Tg(gstp1:GFP) fluorescence in transgenic zebrafish embryos. Format: in vivo. Conditions: olfactory epithelia, 24-hour treatment from 1 dpf to 2 dpf, 5 μM (FIG. 2 legends), ratio to DMSO control, mean ± SD, at least 10 embryos. As to the method:
Zebrafish AB transgenic strains Tg(gstp1:GFP) were maintained in a Pentair Aquatic Ecosystem (Apopka, Fla., United States of America) fish housing unit with 14 h light/10 h dark cycle (see Tsujita, T., Li, L., Nakajima, H., Iwamoto, N., Nakajima-Takagi, Y., Ohashi, K., Kawakami, K., Kumagai, Y., Freeman, B. A., Yamamoto, M., and Kobayashi, M. (2011) “Nitro-fatty acids and cyclopentenone prostaglandins share strategies to activate the Keap1-Nrf2 system: a study using green fluorescent protein transgenic zebrafish.” Genes Cells 16, 46-57). The fish embryos were maintained at 28.5° C. in 0.3× Danieau's solution (19.3 mM NaCl, 0.23 mM KCl, 0.13 mM MgSO4, 0.2 mM Ca(NO3)2, 1.7 mM HEPES, pH 7.0) containing 30 μg/ml phenylthiourea (PTU) to inhibit pigmentation. Tg(gstp1:GFP) cross with AB wild-type strain fluorescence embryos were used for the experiment. Zebrafish embryos were washed, dechorionated and anaesthetized before observations, and fluorescence imaging for analysis.
Transgenic zebrafish embryos at 1 day-post-fertilization (dpf) were dechorionated and placed in Petri dishes containing different chemicals diluted in 0.3× Danieau's solution containing PTU. The chemical stock was dissolved in DMSO at 5 mM concentration.
An Olympus MVX10 Fluorescence Macroscope (Olympus, Center Valley, Pa., United States of America) equipped with a Hamamatsu C9300-221 high-speed digital CCD camera (Hamamatsu City, Japan) was used for fluorescence microscopy. Tg(gstp1:GFP) fluorescent embryos were anaesthetized in tricaine and imaged at 2 dpf. MetaMorph Basic software (Olympus, Center Valley, Pa., United States of America) was used for image acquisition and analysis.
The fluorescence intensity of the olfactory neural epithelia was quantitated using MetaMorph Basic software. In brief, GFP expression in the olfactory regions of Tg(gstp1:GFP) embryos treated with various chemicals was measured after 24-hour treatment from 1 dpf to 2 dpf. The GFP induction was detectable by fluorescence signal at the area of the olfactory epithelia in the anterior of the head region, the intensity was measured using an area of a circle of 60 pixel diameter of the fluorescence olfactory epithelia subtracted by a background non-fluorescence area next to the zebrafish embryo. Both the left and right olfactory epithelia were measured to give an average fluorescence value. The values are an average of measurements from at least 10 embryos.
Consider `CCCCC/C=C/C(=O)CCc1ccc(O)c(OC)c1` [Compound 1, [6]-shogaol, reference compound], for which the “Ratio/CTL, Tg(gstp1:GFP) fluorescence signal (times higher than vehicle)” value (“Ratio/CTL … (times higher than vehicle)” for short) was 2.40 ± 0.54.

`CCCCCCC/C=C/C(=O)CCc1ccc(O)c(OC)c1` [Compound 2, reference compound]: the “Ratio/CTL … (times higher than vehicle)” value came out at 1.67 ± 0.55.

On to `CCCCCCCCC/C=C/C(=O)CCc1ccc(O)c(OC)c1` [Compound 3, reference compound], for which the “Ratio/CTL … (times higher than vehicle)” value was 1.53 ± 0.53.

In the case of `CCCCCC=CC(O)CCc1ccc(O)c(OC)c1` (stereo not shown) [Compound 4], the “Ratio/CTL … (times higher than vehicle)” value was 1.13 and 1.13 ± 0.21.

As for `CCCCCCCC(=O)CCc1ccc(O)c(OC)c1` [Compound 5], the “Ratio/CTL … (times higher than vehicle)” value was 1.27 and 1.27 ± 0.29.

On to `CCCCCC(CC(=O)CCc1ccc(O)c(OC)c1)SCC(N)C(=O)O` (stereo not shown) [Compound 6], for which the “Ratio/CTL … (times higher than vehicle)” value is reported as 1.06 ± 0.20.

As for `CCCCCC(CC(=O)CCc1ccc(O)c(OC)c1)SCC(NC(C)=O)C(=O)O` (stereo not shown) [Compound 7], the “Ratio/CTL … (times higher than vehicle)” value stood at 1.04 ± 0.05.

`CCCCCC(CC(=O)CCc1ccc(O)c(OC)c1)SC` (stereo not shown) [Compound 8]: the “Ratio/CTL … (times higher than vehicle)” value came out at 1.16 ± 0.47.

Regarding `CCCCCC(CC(=O)CCc1ccc(O)c(OC)c1)OC` (stereo not shown) [Compound 10], the “Ratio/CTL … (times higher than vehicle)” value worked out at 0.96 ± 0.24.

In the case of `CCCCC[C@H](O)CC(=O)CCc1ccc(O)c(OC)c1` [Compound 11, [6]-gingerol, reference compound], the “Ratio/CTL … (times higher than vehicle)” value is 1.87 and 1.87 ± 0.51.

In the case of `CCCCCCC[C@H](O)CC(=O)CCc1ccc(O)c(OC)c1` [Compound 12, reference compound], the “Ratio/CTL … (times higher than vehicle)” value is 1.65 and 1.65 ± 0.29.

As to `CCCCCCCCC[C@H](O)CC(=O)CCc1ccc(O)c(OC)c1` [Compound 13, reference compound], the “Ratio/CTL … (times higher than vehicle)” value was 1.29 and 1.29 ± 0.40.

With `CCCCCC(CC(O)CCc1ccc(O)c(OC)c1)SCC(N)C(=O)O` (stereo not shown) [Compound 15], the “Ratio/CTL … (times higher than vehicle)” value is 1.08 ± 0.65.

With `CCCCCC(CC(O)CCc1ccc(O)c(OC)c1)SCC(NC(C)=O)C(=O)O` (stereo not shown) [Compound 16], the “Ratio/CTL … (times higher than vehicle)” value is recorded as 0.78 ± 0.12.

Take `CCCCCC(CC(O)CCc1ccc(O)c(OC)c1)SC` (stereo not shown) [Compound 17]: the “Ratio/CTL … (times higher than vehicle)” value was 0.72 ± 0.14.

On to `CCCCCCCC(=O)/C=C/c1ccc(O)c(OC)c1` [Compound 19], for which the “Ratio/CTL … (times higher than vehicle)” value was 3.29 and 3.29 ± 0.35.

Regarding `CCCCC/C=C/C(=O)/C=C/c1cc(O)c(O)c(OC)c1` [Compound 20], the “Ratio/CTL … (times higher than vehicle)” value was 1.26 and 1.26 ± 0.14.

Regarding `CCCCC/C=C/C(=O)/C=C/c1cc(OC)c(O)c(C(F)(F)F)c1` [Compound 21], the “Ratio/CTL … (times higher than vehicle)” value was 2.18 and 2.18 ± 0.53.

Consider `CCCCC/C=C/C(=O)/C=C/c1cccc(C(F)(F)F)c1` [Compound 22], for which the “Ratio/CTL … (times higher than vehicle)” value is 1.28 and 1.28 ± 0.10.

For the molecule `CCCCC/C=C/C(=O)/C=C/c1cccc(C(F)(F)F)c1F` [Compound 23], the “Ratio/CTL … (times higher than vehicle)” value is 1.63 and 1.63 ± 0.17.

With `CCCCC/C=C/C(=O)/C=C/c1ccccc1C(F)(F)F` [Compound 24], the “Ratio/CTL … (times higher than vehicle)” value is 1.55 and 1.55 ± 0.67.

Staying with this series, now noted: olfactory epithelia, 24-hour treatment from 1 dpf to 2 dpf, 5 μM (FIG. 2 legends), ratio to DMSO control, mean ± SD, at least 10 embryos; listed as 6S.
Take `CCCCC/C=C/C(=O)CCc1ccc(O)c(OC)c1` [Compound 1, [6]-shogaol, reference compound]: the “Ratio/CTL … (times higher than vehicle)” value stood at 2.40.

Staying with this series, now noted: olfactory epithelia, 24-hour treatment from 1 dpf to 2 dpf, 5 μM (FIG. 2 legends), ratio to DMSO control, mean ± SD, at least 10 embryos; listed as 8S.
Consider `CCCCCCC/C=C/C(=O)CCc1ccc(O)c(OC)c1` [Compound 2, reference compound], for which the “Ratio/CTL … (times higher than vehicle)” value came out at 1.67.

The series is the same for the next values; noted with them: olfactory epithelia, 24-hour treatment from 1 dpf to 2 dpf, 5 μM (FIG. 2 legends), ratio to DMSO control, mean ± SD, at least 10 embryos; listed as 10S.
Turning to `CCCCCCCCC/C=C/C(=O)CCc1ccc(O)c(OC)c1` [Compound 3, reference compound], the “Ratio/CTL … (times higher than vehicle)” value came out at 1.53.

Test system in another series: not listed separately
Nature of the series: Cysteine conjugates in mouse urine after oral gavage (LC/MS). Format: in vivo. The conditions noted are these: oral gavage 200 mg/kg, urine collected in 24 h. How it is done: as §1, with “Optimized source parameters, including capillary temperature (260° C.), sheath gas flow rate (31 arbitrary units), auxiliary gas flow rate (16 units), tube lens (34 V), and capillary voltage 9 V, were tuned using authentic samples. The collision-induced dissociation (CID) was conducted with an isolation width 2 Da and normalized collision energy of 35 for MS^2.” left out, “Data acquisition was performed with Xcalibur version 2.0 (Thermo Electron, San Jose, Calif., United States of America).” left out
Enzymatic deconjugation of mouse urine was performed as described previously with slight modifications. […] The resulting suspension was centrifuged at 17,000 g for 5 min, and 10 μL of supernatant was analyzed directly by LC/MS.
For `CCCCC/C=C/C(=O)/C=C/c1ccc(O)c(OC)c1` [Compound 18], the “Cysteine conjugates (metabolites) detected in mouse urine” value is on record as “conjugate 35 was predominantly present”.
